Assay [1] concerns the target Metabotropic glutamate receptor 2 (Homo sapiens, UniProt Q14416).
Assay [2] concerns the target Metabotropic glutamate receptor 3 (Homo sapiens, UniProt Q14832).
For assay [3], the target named is Metabotropic glutamate receptor 1 (Homo sapiens, UniProt Q13255).

For orientation: Ki means a dissociation constant, usually derived from enzyme kinetics or from competition with a known ligand. Read a low Ki as tighter binding.

Several values for one entry are separate records, joined by “and”; a condition that tells them apart may be missing. Equal entries are not always repeated.

Metabotropic glutamate receptor 3, sequence (Q14832 whole entry): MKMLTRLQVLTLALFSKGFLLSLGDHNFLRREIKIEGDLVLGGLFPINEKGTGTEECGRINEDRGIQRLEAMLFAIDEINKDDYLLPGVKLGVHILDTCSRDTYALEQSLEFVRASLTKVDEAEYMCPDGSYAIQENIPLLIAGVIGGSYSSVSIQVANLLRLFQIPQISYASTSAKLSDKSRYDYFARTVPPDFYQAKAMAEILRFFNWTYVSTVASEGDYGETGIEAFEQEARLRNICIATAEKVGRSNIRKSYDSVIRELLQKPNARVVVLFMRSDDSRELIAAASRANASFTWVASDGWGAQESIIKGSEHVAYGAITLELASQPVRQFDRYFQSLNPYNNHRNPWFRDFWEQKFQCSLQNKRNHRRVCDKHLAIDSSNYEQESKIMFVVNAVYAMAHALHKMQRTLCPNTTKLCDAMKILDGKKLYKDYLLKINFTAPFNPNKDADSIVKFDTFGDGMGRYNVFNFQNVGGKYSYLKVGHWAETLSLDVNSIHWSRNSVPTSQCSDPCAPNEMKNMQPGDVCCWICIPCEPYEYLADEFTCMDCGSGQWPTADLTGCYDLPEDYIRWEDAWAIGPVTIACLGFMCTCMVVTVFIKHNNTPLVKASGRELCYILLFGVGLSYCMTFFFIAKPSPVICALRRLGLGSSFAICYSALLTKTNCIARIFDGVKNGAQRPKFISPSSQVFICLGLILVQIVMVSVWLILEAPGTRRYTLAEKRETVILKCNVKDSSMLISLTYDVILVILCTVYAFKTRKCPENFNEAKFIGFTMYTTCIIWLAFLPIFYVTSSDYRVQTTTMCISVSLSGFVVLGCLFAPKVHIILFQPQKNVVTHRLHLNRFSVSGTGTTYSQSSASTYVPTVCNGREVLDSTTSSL
Metabotropic glutamate receptor 2, sequence (Q14416 whole entry): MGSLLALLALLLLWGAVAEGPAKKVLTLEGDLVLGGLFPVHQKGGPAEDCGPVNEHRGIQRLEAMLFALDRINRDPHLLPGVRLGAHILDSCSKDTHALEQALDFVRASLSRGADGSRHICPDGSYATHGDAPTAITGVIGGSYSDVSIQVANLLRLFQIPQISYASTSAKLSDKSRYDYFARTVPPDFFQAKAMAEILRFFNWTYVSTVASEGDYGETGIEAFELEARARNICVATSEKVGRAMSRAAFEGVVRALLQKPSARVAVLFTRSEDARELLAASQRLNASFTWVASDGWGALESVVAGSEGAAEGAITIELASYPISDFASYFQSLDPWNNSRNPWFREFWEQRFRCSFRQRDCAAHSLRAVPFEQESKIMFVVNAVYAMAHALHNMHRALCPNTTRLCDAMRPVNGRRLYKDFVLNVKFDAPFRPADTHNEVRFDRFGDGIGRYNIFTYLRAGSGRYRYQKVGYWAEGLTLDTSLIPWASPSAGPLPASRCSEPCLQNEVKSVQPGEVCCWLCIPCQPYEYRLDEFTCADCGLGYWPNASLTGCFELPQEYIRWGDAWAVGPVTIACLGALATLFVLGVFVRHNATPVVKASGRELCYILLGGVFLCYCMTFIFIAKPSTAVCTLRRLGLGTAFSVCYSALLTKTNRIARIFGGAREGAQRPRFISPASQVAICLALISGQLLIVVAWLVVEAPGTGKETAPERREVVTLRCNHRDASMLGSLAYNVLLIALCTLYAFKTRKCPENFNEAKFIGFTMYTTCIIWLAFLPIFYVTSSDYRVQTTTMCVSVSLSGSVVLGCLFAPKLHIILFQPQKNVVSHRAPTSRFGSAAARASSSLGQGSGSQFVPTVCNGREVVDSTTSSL
Metabotropic glutamate receptor 1, sequence (Q13255 whole entry): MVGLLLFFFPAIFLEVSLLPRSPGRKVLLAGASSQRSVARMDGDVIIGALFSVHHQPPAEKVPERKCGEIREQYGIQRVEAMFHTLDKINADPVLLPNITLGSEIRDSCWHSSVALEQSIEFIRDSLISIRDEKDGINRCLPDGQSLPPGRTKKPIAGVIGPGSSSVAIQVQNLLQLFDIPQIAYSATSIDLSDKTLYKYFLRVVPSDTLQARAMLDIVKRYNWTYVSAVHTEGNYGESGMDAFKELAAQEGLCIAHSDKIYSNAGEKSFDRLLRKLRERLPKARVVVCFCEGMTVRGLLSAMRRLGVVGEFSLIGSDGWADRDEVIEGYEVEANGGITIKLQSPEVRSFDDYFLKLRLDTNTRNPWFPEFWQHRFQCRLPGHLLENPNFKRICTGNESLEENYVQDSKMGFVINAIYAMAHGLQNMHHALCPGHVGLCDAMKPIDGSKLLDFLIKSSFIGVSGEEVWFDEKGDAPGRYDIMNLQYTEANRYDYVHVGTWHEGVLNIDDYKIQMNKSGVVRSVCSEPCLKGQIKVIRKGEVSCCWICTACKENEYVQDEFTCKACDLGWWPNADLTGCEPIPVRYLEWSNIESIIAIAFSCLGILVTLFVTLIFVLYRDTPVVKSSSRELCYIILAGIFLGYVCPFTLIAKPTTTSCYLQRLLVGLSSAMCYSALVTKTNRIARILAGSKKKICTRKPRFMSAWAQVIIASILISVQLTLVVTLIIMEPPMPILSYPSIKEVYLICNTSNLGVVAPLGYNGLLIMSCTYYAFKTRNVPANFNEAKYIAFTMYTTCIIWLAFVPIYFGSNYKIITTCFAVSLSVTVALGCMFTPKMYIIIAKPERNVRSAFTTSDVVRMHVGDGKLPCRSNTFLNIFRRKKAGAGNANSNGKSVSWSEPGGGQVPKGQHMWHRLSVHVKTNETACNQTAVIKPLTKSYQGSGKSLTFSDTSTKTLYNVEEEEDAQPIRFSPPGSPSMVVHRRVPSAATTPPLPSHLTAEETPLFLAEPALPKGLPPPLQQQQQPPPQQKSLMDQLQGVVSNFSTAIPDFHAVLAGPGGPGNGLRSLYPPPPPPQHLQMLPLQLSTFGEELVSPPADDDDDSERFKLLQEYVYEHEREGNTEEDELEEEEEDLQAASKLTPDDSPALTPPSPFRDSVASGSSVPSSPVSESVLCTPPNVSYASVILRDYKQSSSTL

With `N[C@@]1(C(=O)O)CC[C@H](C(=O)O)C1` [1S, 3R-ACPD], the Ki was above 10 µM in assay [1]; > 10 µM and 5.4 µM in assay [2].

For `N[C@@H](Cn1oc(=O)[nH]c1=O)C(=O)O` [2-amino-3-(3,5-dioxo[1,2,4]oxadiazolidin-2-yl)propionic acid], in assay [1], the affinity, expressed as Ki, was 0.42 µM.

For the compound `N[C@H](C(=O)O)[C@H]1C[C@H]1C(=O)O` [L-CCG-IV], the Ki in assay [1] was above 10 µM; in assay [3], 3.47 µM.

(Values after BindingDB's records for doi:10.1046/j.1471-4159.1996.67010058.x (Cns Research, 1996).)
